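In this assay, cells in 96-well plates receive the compound at five concentrations for 48 hours. Endpoints are linearly interpolated between the surrounding concentrations. Abbreviation: GI50, concentration required for 50% inhibition of growth.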 The source made the active and inactive calls. Rule as the data show it: active = GI50 up to about 1.1 µM and inactive = higher.
Columns and labels:
Experiment in all cases: DTP human tumour cell line panel, 48 h
SN12C = system: SN12C
ACHN = system: ACHN
UO-31 = system: UO-31
NCI-H226 = system: NCI-H226
TK-10 = system: TK-10
OVCAR-5 = system: OVCAR-5
MCF7 = system: MCF7
UACC-257 = system: UACC-257
U-251 = system: U-251
MOLT-4 = system: MOLT-4
CCRF-CEM = system: CCRF-CEM
BT-549 = system: BT-549
SNB-19 = system: SNB-19
NCI/ADR-RES = system: NCI/ADR-RES
SF-295 = system: SF-295
SK-MEL-2 = system: SK-MEL-2
CAKI-1 = system: CAKI-1
SK-MEL-5 = system: SK-MEL-5
NCI-H23 = system: NCI-H23
M14 = system: M14
786-0 = system: 786-0
OVCAR-4 = system: OVCAR-4
DU-145 = system: DU-145
T47D = system: T47D
HOP-92 = system: HOP-92
SK-OV-3 = system: SK-OV-3
Malme-3M = system: Malme-3M
LOX IMVI = system: LOX IMVI
OVCAR-8 = system: OVCAR-8
NCI-H522 = system: NCI-H522
A498 = system: A498
UACC-62 = system: UACC-62
HL-60 = system: HL-60
HCT-116 = system: HCT-116
NCI-H460 = system: NCI-H460
EKVX = system: EKVX
SR = system: SR
K562 = system: K562
SNB-75 = system: SNB-75
HCC 2998 = system: HCC 2998
MDA-MB-435 = system: MDA-MB-435
OVCAR-3 = system: OVCAR-3
HCT-15 = system: HCT-15
HOP-62 = system: HOP-62
PC-3 = system: PC-3
COLO 205 = system: COLO 205
SF-539 = system: SF-539
KM12 = system: KM12
SK-MEL-28 = system: SK-MEL-28
SF-268 = system: SF-268
MDA-N = system: MDA-N
HT-29 = system: HT-29
A549 = system: A549
SW-620 = system: SW-620
RXF 393 = system: RXF 393
MDA-MB-231 = system: MDA-MB-231
RPMI-8226 = system: RPMI-8226
IGROV-1 = system: IGROV-1

For `O=C(N(C1=CCCC1)N(c1ccccc1)c1ccccc1)C(F)(F)F`, the GI50 (SN12C) was 26.9 µM (inactive), the GI50 (ACHN) was 17.3 µM (inactive) and the GI50 (UO-31) was 31.6 µM (inactive). For the same compound, the GI50 (NCI-H226) was 19.7 µM (inactive), the GI50 (TK-10) was 39.9 µM (inactive) and the GI50 (OVCAR-5) was 27 µM (inactive). The GI50 (MCF7) was 19.7 µM (inactive), the GI50 (UACC-257) was 21.6 µM (inactive) and the GI50 (U-251) was 19.8 µM (inactive). For the same compound, the GI50 (MOLT-4) was 14 µM (inactive), the GI50 (CCRF-CEM) was 23.4 µM (inactive) and the GI50 (BT-549) was 29.9 µM (inactive). The GI50 (SNB-19) was 30 µM (inactive), the GI50 (NCI/ADR-RES) was 28.8 µM (inactive) and the GI50 (SF-295) was 22.6 µM (inactive). For the same compound, the GI50 (SK-MEL-2) was 17.1 µM (inactive), the GI50 (CAKI-1) was 20.2 µM (inactive) and the GI50 (SK-MEL-5) was 16.3 µM (inactive). The GI50 (NCI-H23) was 30.4 µM (inactive), the GI50 (M14) was 26.2 µM (inactive) and the GI50 (786-0) was 27.7 µM (inactive). The GI50 (OVCAR-4) was 25.4 µM (inactive), the GI50 (DU-145) was 30.8 µM (inactive) and the GI50 (T47D) was 17 µM (inactive). For the same compound, the GI50 (HOP-92) was 10.5 µM (inactive), the GI50 (SK-OV-3) was 40.1 µM (inactive) and the GI50 (Malme-3M) was 3.76 µM (inactive). The GI50 (LOX IMVI) was 15.8 µM (inactive), the GI50 (OVCAR-8) was 29.9 µM (inactive) and the GI50 (NCI-H522) was 10.4 µM (inactive). The GI50 (A498) was 51.8 µM (inactive), the GI50 (UACC-62) was 25.8 µM (inactive) and the GI50 (HL-60) was 20.3 µM (inactive). For the same compound, the GI50 (HCT-116) was 21.5 µM (inactive), the GI50 (NCI-H460) was 17.5 µM (inactive) and the GI50 (EKVX) was 17.5 µM (inactive). For the same compound, the GI50 (SR) was 31 µM (inactive), the GI50 (K562) was 19.5 µM (inactive) and the GI50 (SNB-75) was 20 µM (inactive). For the same compound, the GI50 (HCC 2998) was 18.2 µM (inactive), the GI50 (MDA-MB-435) was 21.1 µM (inactive) and the GI50 (OVCAR-3) was 18.9 µM (inactive). The GI50 (HCT-15) was 21.4 µM, the GI50 (HOP-62) was 25.5 µM (inactive) and the GI50 (PC-3) was 30.3 µM (inactive). The GI50 (COLO 205) was 18.6 µM (inactive), the GI50 (SF-539) was 20.2 µM (inactive) and the GI50 (KM12) was 18.1 µM (inactive). The GI50 (SK-MEL-28) was 28.4 µM (inactive), the GI50 (SF-268) was 16.7 µM (inactive) and the GI50 (MDA-N) was 23.9 µM (inactive). The GI50 (HT-29) was 17.3 µM (inactive), the GI50 (A549) was 26.4 µM (inactive) and the GI50 (SW-620) was 20.2 µM (inactive). The GI50 (RXF 393) was 17 µM (inactive) and the GI50 (MDA-MB-231) was 16.9 µM (inactive).

`COCOc1ccc(C2(O)Oc3cc(OCOC)ccc3C2C)c(O)c1` (centres undefined) was tested, and the GI50 (SN12C) was 16.4 µM (inactive), the GI50 (ACHN) was 12.9 µM (inactive) and the GI50 (UO-31) was 11.6 µM (inactive). For the same compound, the GI50 (RPMI-8226) was 11.7 µM (inactive), the GI50 (NCI-H226) was 14.8 µM (inactive) and the GI50 (TK-10) was 17.9 µM (inactive). For the same compound, the GI50 (OVCAR-5) was 17.1 µM (inactive), the GI50 (MCF7) was 14.3 µM (inactive) and the GI50 (UACC-257) was 12.1 µM (inactive). The GI50 (U-251) was 15 µM (inactive), the GI50 (MOLT-4) was 10.3 µM (inactive) and the GI50 (CCRF-CEM) was 14.9 µM (inactive). For the same compound, the GI50 (BT-549) was 14.2 µM (inactive), the GI50 (SNB-19) was 16 µM (inactive) and the GI50 (NCI/ADR-RES) was 13.5 µM (inactive). For the same compound, the GI50 (SF-295) was 14.5 µM (inactive), the GI50 (SK-MEL-2) was 18.4 µM (inactive) and the GI50 (CAKI-1) was 16.3 µM (inactive). For the same compound, the GI50 (SK-MEL-5) was 11 µM (inactive), the GI50 (NCI-H23) was 11.2 µM (inactive) and the GI50 (M14) was 16.6 µM (inactive). The GI50 (786-0) was 17.8 µM (inactive), the GI50 (OVCAR-4) was 17.3 µM (inactive) and the GI50 (DU-145) was 13.1 µM (inactive). The GI50 (T47D) was 12.3 µM (inactive), the GI50 (HOP-92) was 16.2 µM (inactive) and the GI50 (SK-OV-3) was 17.5 µM (inactive). For the same compound, the GI50 (Malme-3M) was 15.3 µM (inactive), the GI50 (LOX IMVI) was 16.9 µM (inactive) and the GI50 (OVCAR-8) was 16.8 µM (inactive). The GI50 (NCI-H522) was 18.2 µM (inactive), the GI50 (A498) was 15.5 µM (inactive) and the GI50 (UACC-62) was 12.9 µM (inactive). For the same compound, the GI50 (HL-60) was 10.5 µM (inactive), the GI50 (HCT-116) was 14.3 µM (inactive) and the GI50 (NCI-H460) was 13.4 µM (inactive). For the same compound, the GI50 (EKVX) was 14.6 µM (inactive), the GI50 (IGROV-1) was 17.6 µM (inactive) and the GI50 (SR) was 6.95 µM (inactive). For the same compound, the GI50 (K562) was 10.7 µM (inactive), the GI50 (SNB-75) was 15.3 µM (inactive) and the GI50 (HCC 2998) was 13.5 µM (inactive). The GI50 (MDA-MB-435) was 14.9 µM (inactive), the GI50 (OVCAR-3) was 13.4 µM (inactive) and the GI50 (HCT-15) was 10.5 µM. The GI50 (HOP-62) was 18 µM (inactive), the GI50 (PC-3) was 13.2 µM (inactive) and the GI50 (COLO 205) was 18.2 µM (inactive). The GI50 (SF-539) was 15.7 µM (inactive), the GI50 (KM12) was 16.7 µM (inactive) and the GI50 (SK-MEL-28) was 17.2 µM (inactive). The GI50 (SF-268) was 15.9 µM (inactive), the GI50 (MDA-N) was 15.3 µM (inactive) and the GI50 (HT-29) was 18.1 µM (inactive). The GI50 (A549) was 15.9 µM (inactive), the GI50 (SW-620) was 18.4 µM (inactive) and the GI50 (RXF 393) was 16.4 µM (inactive). For the same compound, the GI50 (MDA-MB-231) was 12.3 µM (inactive).
